Data taken from patent US20150238601A1, “TREATMENT OF OCULAR DISORDERS” (KADMON CORPORATION, LLC, priority 2012, published 2015).
Where a name gives a salt, the structure may show the parent alone. Read-outs that look alike come from different tables or passages of the source. Each block holds one compound with its values, some of them ahead of it.

Assays:
ROCK1 [1] = target: T1, ROCK1 (Homo sapiens, UniProt Q13464); test: Invitrogen Z'-LYTE Kinase Assay; type: biochemical; parameters: purchased Invitrogen PV3691; settings: 5 uM ATP, ROCK1 0.18 ug/mL
Excerpt: (§2) Dose response curves for Rho-kinase inhibition were derived from a Invitrogen Z′-LYTE™ Kinase Assay Kit (Invitrogen catalog number PV3793). Purified active ROCK1 and ROCK2 were obtained from Invitrogen (catalog numbers ROCK1, PV3691 and ROCK2, PV3759). The kit components include a coumarin and fluorescein labeled peptide based on myosin light chain 2 ([sequence]), a proprietary protease containing development reagent and a proprietary Stop buffer used to terminate the development reaction. The inhibitory activities of compounds are measured according to the manufactures protocol. […] The assay proceeds at room temperature for 1 hour followed by the addition of development reagent, and further incubation for 1 hour at room temperature. […] By comparing the emission ratios of the test samples against control samples, percent phosphorylation values are calculated and the concentration of inhibitor that produces 1/2 inhibition of kinase activity (IC50) is determined using Prism.

ROCK2 = target: T2, ROCK2 (Homo sapiens, UniProt O75116); test: Invitrogen Z'-LYTE Kinase Assay; type: biochemical
T2 construct: purchased Invitrogen PV3759
Excerpt: as §2

[2] = tested on: subfoveal choroidal neovascularization (CNV) lesion secondary to AMD; test: study in subjects with subfoveal CNV lesion secondary to AMD; type: in vivo, human; settings: Example 43 with Mab 106 vs Mab 106, six months
Method: A study is conducted of 50 men and women having subfoveal choroidal neovascularization (CNV) lesion secondary to AMD. […] Subjects are observed over six months to determine intraocular inflammation, macular thickness, and the status of macular perfusion. Visual acuity is also measured over the time period.

ROCK1 [3] = target: T1, ROCK1; test: biochemical
Method: Dose response curves for Rho-kinase inhibition were derived from a Millipore immuno-based 96 well plate assay (Millipore catalog number CSA001). Purified active ROCK1 and ROCK2 were obtained from Invitrogen (catalog numbers ROCKI, PV3691 and ROCK2, PV3759). The kit components include assay plates, which are pre-coated with recombinant MYPT1, which contains a specifically phosphorylatable Thr696. The inhibitory activities of compounds are measured according to the manufactures protocol. […] The assay proceeds at 300 Celsius for 30 minutes with gentle shaking at 120 rpm. The assay is terminated by washing of the plate 3 times with Tris-buffered saline and tween wash buffer. Anti-phospho-MYPT1 (Thr696) antibody is added to each well to detect the phosphorylated substrate and incubated for 1 hour at room temperature after which HRP conjugated anti-rabbit IgG secondary is added for 1 hour at room temperature. After washing the assay is developed using a substrate reagent and the absorbance is read at 450 nm on a Tecan Infinite M1000 reflecting the relative remaining ROCK phosphorylation activity.

[4] = tested on: proliferative diabetic retinopathy; test: preoperative treatment of proliferative diabetic retinopathy / diabetic macular edema; type: in vivo, human; settings: with pegaptanib, compared to pegaptanib alone, intravitreal, 8 weeks after surgery
Method: The agents are administered by intravitreal injection. Subjects are evaluated over 8 weeks following surgery as to post operative rebleed, macular edema post injection, and pre- and post-injection levels of VEGF165. It is expected that compared to pegaptanib alone, administration of compound 154 results in reduced bleeding and macular edema.

[5] = tested on: CD4+ T cells from peripheral blood of RA patients; test: CD4+ T cells of RA patients stimulated with anti-CD3/CD28 ex vivo; type: cell-based, human
CD4+ human T cells [6] = test: cytokine secretion of anti-CD3/CD28 stimulated CD4+ T cells in vitro; type: cell-based; settings: anti-CD3/CD28 stimulation
Excerpt: (§1) Activation of resting T cells, resulting in cytokine secretion and proliferation, involves two distinct signals from antigen-presenting cells (APCs), mimicked by co-stimulation of the T cell receptor (TCR)/CD3 complex and the CD28 receptor.

CD4+ human T cells [7] = test: T cell proliferation in response to TCR stimulation in vitro; type: cell-based
Excerpt: as §1

STAT3 phosphorylation = STAT3 phosphorylation in T cells; type: cell-based
Method: STAT3 plays a critical role in Th17 differentiation via regulation of RORγt expression and direct binding to the IL-17 and IL-21 promoters. […] In a different experiment, cells we cultured under Th17-skewing conditions for 5 days and then treated with the ROCK2 selective inhibitor for 3 hours.

[8] = Z'-LYTE, 12 uM ATP, ROCK2 0.8 ug/mL, read-out: ROCK2 IC50
[9] = 2 RA patients, intracellular staining
[10] = RA patients, ex vivo, TCR stimulation

T2 sequence (O75116 whole entry): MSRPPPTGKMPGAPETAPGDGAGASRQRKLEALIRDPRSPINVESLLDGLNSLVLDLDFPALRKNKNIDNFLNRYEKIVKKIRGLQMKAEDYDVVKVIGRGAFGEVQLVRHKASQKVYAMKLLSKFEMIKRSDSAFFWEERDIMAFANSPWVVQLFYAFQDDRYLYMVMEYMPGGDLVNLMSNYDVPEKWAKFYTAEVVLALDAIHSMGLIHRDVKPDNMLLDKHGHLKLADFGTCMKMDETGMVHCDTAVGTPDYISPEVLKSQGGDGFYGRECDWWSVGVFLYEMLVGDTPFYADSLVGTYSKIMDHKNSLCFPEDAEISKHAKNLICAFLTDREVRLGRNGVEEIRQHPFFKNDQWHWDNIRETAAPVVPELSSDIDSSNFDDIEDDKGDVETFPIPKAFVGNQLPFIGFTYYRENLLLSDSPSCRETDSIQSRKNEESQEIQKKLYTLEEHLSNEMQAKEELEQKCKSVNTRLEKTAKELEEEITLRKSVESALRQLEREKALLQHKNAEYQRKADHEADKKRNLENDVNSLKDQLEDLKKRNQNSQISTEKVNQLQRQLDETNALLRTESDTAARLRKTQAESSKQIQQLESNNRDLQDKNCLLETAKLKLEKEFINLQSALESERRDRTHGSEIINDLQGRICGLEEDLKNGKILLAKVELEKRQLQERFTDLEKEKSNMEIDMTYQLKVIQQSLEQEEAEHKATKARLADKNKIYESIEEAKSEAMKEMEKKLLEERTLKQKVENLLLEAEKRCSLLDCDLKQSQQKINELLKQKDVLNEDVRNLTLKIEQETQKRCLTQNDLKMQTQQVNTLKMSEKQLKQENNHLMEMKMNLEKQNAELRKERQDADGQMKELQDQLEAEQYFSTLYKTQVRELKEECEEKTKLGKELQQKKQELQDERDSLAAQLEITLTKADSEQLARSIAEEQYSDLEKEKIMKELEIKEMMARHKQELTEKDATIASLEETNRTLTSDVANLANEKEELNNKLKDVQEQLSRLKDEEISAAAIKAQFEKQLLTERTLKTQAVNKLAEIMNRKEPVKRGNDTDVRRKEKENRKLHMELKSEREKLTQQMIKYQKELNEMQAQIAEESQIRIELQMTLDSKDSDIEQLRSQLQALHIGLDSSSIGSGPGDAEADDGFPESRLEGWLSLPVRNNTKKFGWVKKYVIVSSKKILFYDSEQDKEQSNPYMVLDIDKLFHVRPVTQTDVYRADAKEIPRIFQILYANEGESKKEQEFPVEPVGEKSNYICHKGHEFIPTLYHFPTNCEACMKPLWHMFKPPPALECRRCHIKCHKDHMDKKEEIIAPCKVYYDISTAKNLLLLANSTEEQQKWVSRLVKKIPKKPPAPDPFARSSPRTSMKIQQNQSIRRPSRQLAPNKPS
T1 sequence (Q13464 whole entry): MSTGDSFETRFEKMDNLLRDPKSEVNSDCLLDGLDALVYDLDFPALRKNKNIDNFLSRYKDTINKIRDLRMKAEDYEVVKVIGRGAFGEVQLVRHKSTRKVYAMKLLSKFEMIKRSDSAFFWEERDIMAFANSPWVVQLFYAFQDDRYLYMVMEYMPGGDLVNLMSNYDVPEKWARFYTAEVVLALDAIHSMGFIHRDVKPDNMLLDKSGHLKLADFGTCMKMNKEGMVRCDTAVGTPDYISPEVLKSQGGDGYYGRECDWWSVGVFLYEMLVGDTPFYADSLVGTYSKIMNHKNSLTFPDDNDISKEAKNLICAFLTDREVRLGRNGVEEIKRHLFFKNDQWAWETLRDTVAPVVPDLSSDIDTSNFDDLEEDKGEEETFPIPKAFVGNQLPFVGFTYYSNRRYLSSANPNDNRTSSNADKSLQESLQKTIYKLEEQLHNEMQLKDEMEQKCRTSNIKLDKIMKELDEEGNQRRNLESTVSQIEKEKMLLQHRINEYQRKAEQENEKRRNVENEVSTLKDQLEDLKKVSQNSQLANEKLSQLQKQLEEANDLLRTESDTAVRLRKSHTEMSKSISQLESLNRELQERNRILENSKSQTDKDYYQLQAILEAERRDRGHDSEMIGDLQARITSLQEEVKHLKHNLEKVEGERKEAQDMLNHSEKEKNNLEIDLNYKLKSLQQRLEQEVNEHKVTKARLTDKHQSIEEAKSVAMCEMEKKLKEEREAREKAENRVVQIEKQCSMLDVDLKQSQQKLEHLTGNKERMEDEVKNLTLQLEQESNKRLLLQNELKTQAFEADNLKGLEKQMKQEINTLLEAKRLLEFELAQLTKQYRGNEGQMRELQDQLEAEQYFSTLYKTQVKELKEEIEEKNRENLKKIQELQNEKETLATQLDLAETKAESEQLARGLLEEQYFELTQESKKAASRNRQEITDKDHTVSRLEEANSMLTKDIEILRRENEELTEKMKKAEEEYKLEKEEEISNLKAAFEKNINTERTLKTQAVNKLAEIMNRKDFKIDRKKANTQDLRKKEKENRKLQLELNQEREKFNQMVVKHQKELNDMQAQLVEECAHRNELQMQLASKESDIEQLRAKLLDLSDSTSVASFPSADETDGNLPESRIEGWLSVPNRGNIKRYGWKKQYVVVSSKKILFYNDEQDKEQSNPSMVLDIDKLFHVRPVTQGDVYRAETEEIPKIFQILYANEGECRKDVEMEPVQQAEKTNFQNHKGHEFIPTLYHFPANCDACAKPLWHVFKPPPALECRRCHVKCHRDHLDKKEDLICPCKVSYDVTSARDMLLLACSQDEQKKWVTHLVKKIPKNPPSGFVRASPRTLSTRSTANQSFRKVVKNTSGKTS

SMILES: c1cc(OCc2ccncc2)cc(-c2nccc(Nc3ccc4[nH]ncc4c3)n2)c1 [Example 136, N-(2-(3-(pyridin-4-ylmethoxy)phenyl)pyrimidin-4-yl)-1H-indazol-5-amine]
IC50 (ROCK1 [1]): 170 nM

SMILES: O=C(Oc1cccc(-c2nccc(Nc3ccc4[nH]ncc4c3)n2)c1)N1CCOCC1 [Example 129, 3-(4-((1H-indazol-5-yl)amino)pyrimidin-2-yl)phenyl morpholine-4-carboxylate]
IC50 (ROCK1 [1]): 1100 nM | IC50 (ROCK2; [8]): 10 nM

SMILES: CC(C)NC(=O)COc1cccc(-c2ncc(OCCN(C)C)c(Nc3ccc4[nH]ncc4c3)n2)c1 [Example 43, 2-(3-(4-((1H-indazol-5-yl)amino)-5-(2-(dimethylamino)ethoxy)pyrimidin-2-yl)phenoxy)-N-isopropylacetamide TFA salt]
IC50 (ROCK1 [1]): 750 nM | IC50 (ROCK2; [8]): 25 nM | intraocular inflammation [2]: less | macular perfusion [2]: less

SMILES: O=C(COc1cccc(-c2nccc(Nc3ccc4[nH]ncc4c3)n2)c1)N[C@@H]1CCNC1 [Example 12, (R)-2-(3-(4-((1H-indazol-5-yl)amino)pyrimidin-2-yl)phenoxy)-N-(pyrrolidin-3-yl)acetamide HCl salt]
IC50 (ROCK1 [3]): 1770 nM | Ki (ROCK1 [3]): 70 nM

SMILES: CC(C)NCCOc1cccc(-c2nccc(Nc3ccc4[nH]ncc4c3)n2)c1 [Example 154, N-(2-(3-(2-(isopropylamino)ethoxy)phenyl)pyrimidin-4-yl)-1H-indazol-5-amine]
bleeding (post operative rebleed) [4]: reduced | macular edema [4]: reduced

SMILES: CC(C)NC(=O)COc1cccc(-c2nc(Nc3ccc4[nH]ncc4c3)c3ccccc3n2)c1 [SLx-2119]
frequency of IFN-γ-producing cells [5, 9]: significantly reduced | frequency of IL-17-producing cells [5, 9]: significantly reduced | IFN-γ secretion [5, 10]: significantly down-regulated | IL-17 secretion [5, 10]: significantly down-regulated | IL-21 secretion [5, 10]: significantly down-regulated | IL-17 secretion (CD4+ human T cells [6]; dose-dependent): significantly inhibited | IL-21 secretion (CD4+ human T cells [6]; dose-dependent): significantly inhibited | inhibition of IFN-γ secretion (CD4+ human T cells [6]; high dose 10 μM): less robust and significant only at high dose | ability of T cells to proliferate in response to TCR stimulation (CD4+ human T cells [7]): down-regulated | phosphorylation of STAT3 (STAT3 phosphorylation; T cells pre-treated, then stimulated with anti-CD3/CD28 antibodies): reduced | STAT3 phosphorylation (STAT3 phosphorylation; Th17-skewing conditions 5 days, then treated 3 hours): reduced

SMILES: CC(C)NC(=O)COc1cccc(-c2nc(Nc3ccc4[nH]ncc4c3)cc(N3CCCNCC3)n2)c1 [Example 121, 2-(3-(4-((1H-indazol-5-yl)amino)-6-(1,4-diazepan-1-yl)pyrimidin-2-yl)phenoxy)-N-isopropylacetamide]
IC50 (ROCK1 [1]): 1390 nM | IC50 (ROCK2; [8]): 13 nM

SMILES: CN(C)C(=O)Oc1cccc(-c2nccc(Nc3ccc4[nH]ncc4c3)n2)c1 [Example 131, 3-(4-((1H-indazol-5-yl)amino)pyrimidin-2-yl)phenyl dimethylcarbamate]
IC50 (ROCK2): 39 nM

Further lines, results first:

IC50 (ROCK1 [1]): 1910 nM | IC50 (ROCK2; [8]): 55 nM
SMILES: COc1cccc(-c2nccc(Nc3ccc4[nH]ncc4c3)n2)c1 [Example 140, N-(2-(3-methoxyphenyl)pyrimidin-4-yl)-1H-indazol-5-amine]

IC50 (ROCK1 [1]): > 2000 nM | IC50 (ROCK2; [8]): > 5500 nM
SMILES: CC(N)c1cccc(-c2nccc(Nc3ccc4[nH]ncc4c3)n2)c1 (centres unmarked) [Example 147, N-(2-(3-(1-aminoethyl)phenyl)pyrimidin-4-yl)-1H-indazol-5-amine]

IC50 (ROCK1 [1]): 1980 nM | IC50 (ROCK2; [8]): 8 nM
SMILES: COCCOc1cccc(-c2nccc(Nc3ccc4[nH]ncc4c3)n2)c1 [Example 138, N-(2-(3-(2-methoxyethoxyl)phenyl)pyrimidin-4-yl)-1H-indazol-5-amine]

IC50 (ROCK1 [1]): > 10000 nM | IC50 (ROCK2; [8]): > 10000 nM
SMILES: CC(C)NC(=O)COc1cccc(-c2nc(Nc3ccc4[nH]ncc4c3)cc(C(F)(F)F)n2)c1 [Example 169]

IC50 (ROCK1 [1]): 1930 nM | IC50 (ROCK2; [8]): 58 nM
SMILES: c1cc(OCCN2CCOCC2)cc(-c2nccc(Nc3ccc4[nH]ncc4c3)n2)c1 [Example 144, N-(2-(3-(2-morpholinoethoxyl)phenyl)pyrimidin-4-yl)-1H-indazol-5-amine]
